Experimental data reported in US20140294729A1, “METHODS FOR IDENTIFICATION AND USE OF AGENTS TARGETING CANCER STEM CELLS” (Whitehead Institute for Biomedical Research, priority 2008, published 2014).

What was measured:
HMLEshEcad cells = test: Resistance to cytotoxic agents, immortalized HMLEshCntrl vs HMLEshEcad (MTS viability); format: cell-based, human; details: three concentrations, FIG. 2B
Experimental: FIGS. 2A-2D depict that passage through the EMT leads to resistance to conventional chemotherapy drugs. FIG. 2A depicts dose response curves of transformed HMLERshCntrl (light gray line) and HMLERshEcad (dark gray line) cells treated with Paclitaxel and Doxorubicin. Dotted line denotes the 50% fraction surviving. […] FIG. 2B depicts the response of immortalized cells to chemotherapy drugs. HMLEshCntrl and HMLEshEcad cells were treated with the indicated drugs at three concentrations for 3 days and assayed for viability using the MTS assay. While Doxorubucin, Actinomycin D, Paclitaxel and Campthotecin are chemotherapeutic drugs, Staurosporine is a general kinase inhibitor that potently induce apoptosis. FIGS. 2C and 2D depict paclitaxel treatment leads to selective expansion of a minority cell population that has undergone an EMT. Control HMLE cells and GFP expressing HMLEshEcad cells were mixed at a ratio of 20:1 and seeded onto 6-well plates in triplicate. DMSO or Paclitaxel at 2.5 nm or 10 nm concentration was added onto the mixed cell populations 1 day after seeding followed by a 3 day incubation. The number of GFP-positive cells at the end of treatment were analyzed by flow cytometry. […] Note the increase in GFP positivity from 5% to 14% upon […] Paclitaxel treatment.
However, we postulated that the differential drug sensitivity observed was, rather, a consequence of the respective differentiation states of the immortalized cells from which the cancer cell lines were derived. To directly examine this hypothesis, we treated HMLEsiGFP and HMLEsiEcad cells for a period of […] with a series of chemical compounds at 3 different concentrations each. Included in these compounds were the established chemotherapy drugs Doxorubicin, Paclitaxel, Actinomycin D, Camptothecin as well as a broad kinase inhibitor, Staurosporine.
Doxorubicin, paclitaxel, actinomycin D, campthotecin and staurosporine were purchased from Sigma and dissolved in dimethyl sulfoxide (dmso). 5000 cells in 100 ul of medium were plated per well in 96-well plates. 24 hrs after seeding, compounds at the indicated concentration were added to wells (5 wells per each concentration). Dmso treatment was used as negative control. Cell viability was measured after 72 hrs using the CellTiter96 AQueous Assay (Promega) according to manufacturer's instructions. Dose response curves were generated with GraphPad Prism software (GraphPad Software, Inc.).

HMLERshEcad cells = test: Dose response of transformed HMLERshCntrl vs HMLERshEcad cells to screen hits; format: cell-based, human; details: range of concentrations, FIG. 4D
Experimental: FIG. 4A depicts dose response curves of HMLEshCntrl (A, light gray curve) and HMLEshEcad (A, dark gray curve) cells treated with the 8 compounds identified during the initial screen. 1000 cells of each line were seeded onto 384 well plates and treated with 8 different concentrations of compounds within a 2.5 log range. The cell viability after 3 day treatment was measured by Cell-Titer-Glo. […] FIG. 4B depicts dose response curves of HMLEshCntrl (curve with square data points) and HMLE-Twist (curve with triangular data points) cells treated with the same compounds as in (A). Note that selectivity of Salinomycin, Abamectin, Etoposide and Nigericin (Top, Left-to-Right) is retained even though a different method of EMT induction is used. […] 1 Day after seeding DMSO, Salinomycin (1.25 or 5 μM) or Abamectin (0.25 or 1.25 μM) was added at the indicated concentration. As the GFP vector contains a Blasticidin resistance gene, we used Blasticidin treatment as a positive control for the expansion of GFP-expressing control HMLE cells. After 3 day incubation the mix population of cells were analyzed by flow cytometry and the percentage of GFP-positive cells were determined. […] FIG. 4D depicts dose response curves of transformed HMLERshCntrl (light gray line) and HMLERshEcad (dark gray lines) cells treated with Salinomycin and Abamectin. Dotted line denotes the 50% fraction surviving.

HMLER cells = test: Growth rate of HMLER cultures after treatment; format: cell-based, human; details: FIG. 6B
Experimental: FIGS. 6A and 6B depict effects of salinomycin on the CSC population in HMLER cell line. (FIG. 6A) HMLER cells were treated with vehicle control (dmso), salinomycin or paclitaxel at the indicated concentrations for 15 days. FACS analysis were performed at the end of treatment to gauge the CD44+/CD24− CSC population (right panels). Note that salinomycin decreases the CD44+/CD24− population from a basal of 4.9% to 0.2%. Treated cultures were also subjected to the mammosphere formation assay (left panels). Number of mammopsheres formed per 1000 cells from each culture are indicated below the representative photographs of assay wells. (FIG. 6B) Growth rates of HMLER cultures after treatment with vehicle control (dmso), salinomycin or paclitaxel at the indicated concentrations in (A) for 15 days.
We then turned to the critical question of whether the compounds had the general ability to inhibit CSCs in breast cancer cell lines. […] We next compared the effects of salinomycin, control vehicle DMSO and paclitaxel on HMLER cells. […] The CD44+/CD24− fraction was thus 360-fold lower following treatment with salinomycin than with paclitaxel (FIG. 6A). Proliferation of the bulk population was not inhibited following treatment with salinomycin relative to either vehicle- or paclitaxel-treatment (FIG. 6B).

[1] = test system: breast CSC and progenitor genes; test: Gene set enrichment analysis of stem-like cell gene sets after treatment; format: cell-based; details: in comparison with paclitaxel treatment, FIG. 16
Text: (§1) Gene set enrichment analysis was used to determine whether three previously reported sets of genes associated with stem-like cells were repressed in response to salinomycin in comparison with paclitaxel treatment. Graphed are the Kolmogorov-Smimov enrichment scores versus Gene ranks based on differential expression. P-values reflecting statistical significance for each analysis are shown.
as §1, with “Kolmogorov-Smirnov” for “Kolmogorov-Smimov”, “shown. The three previously reported gene signatures are: CD44+CD24− IGS (Liu et al., 2007), CD44+CD24− (Shipitsin et al., 2007) and Mammosphere (Dontu et al., 2003). (FIG. 16.)” for “shown.”

SMILES | resistance of HMLEshEcad cells relative to HMLEshCntrl control cells (HMLEshEcad cells) | selective toxicity for HMLERshEcad (MT tumorigenic) cells (HMLERshEcad cells) | selective toxicity for HMLERshEcad (MT tumorigenic) cells (HMLERshEcad cells; listed as Salinomycin) | proliferation of the bulk population relative to vehicle- or paclitaxel-treatment (HMLER cells) | expression of clinically relevant breast CSC and progenitor genes [1]
CC(=O)O[C@H]1C(=O)[C@@]2(C)[C@H]([C@H](OC(=O)c3ccccc3)[C@]3(O)C[C@H](OC(=O)[C@H](O)[C@@H](NC(=O)c4ccccc4)c4ccccc4)C(C)=C1C3(C)C)[C@]1(OC(C)=O)CO[C@@H]1C[C@@H]2O [paclitaxel] | increased resistance |  |  |  | 
CC[C@@H](C(=O)[C@@H](C)[C@@H](O)[C@H](C)[C@@H]1O[C@@H]([C@@H](CC)C(=O)O)CC[C@@H]1C)[C@H]1O[C@]2(C=C[C@@H](O)[C@]3(CC[C@@](C)([C@H]4CC[C@](O)(CC)[C@H](C)O4)O3)O2)[C@H](C)C[C@@H]1C [salinomycin] |  | selectively toxic | remains | not inhibited | reduces the expression
